# Earlier results in US7122627B2, “Lactam inhibitors of Hepatitis C virus NS3 protease” (Bristol-Myers Squibb Company, priority 1999, dated 2006).
# [ ]: non-standard residue; d: D form.
substance,measurement,setting,value
alpha interferon and ribavirin,patients with sustained efficacy,"Hepatitis C virus (HCV); combination therapy, Poynard et al. Lancet 1998",40%
Ac-Asp-Glu-Dpa-Glu-Cha-Cys-OH,Ki,HCV protease; reported in Biochemistry 37 (1998),< 1 µM
alpha interferon,patients in whom treatment is effective,"Hepatitis C virus (HCV); current treatment, monotherapy",15-20%
Ac-D[dD]IVPC-OH,effectiveness compared with all L isomer,HCV protease; Llinas-Brunet et al. Bioorg. Med. Chem. Lett. 8 1713-1718 (1998),more effective than its all “L” isomer
